Where two headings read alike, the source gives them in different places.
What was measured:
human 5-HT2AR = target: T1, human 5-HT2AR (Homo sapiens, UniProt P28223); assay: HTRF-based IP1 accumulation assay (5-HT2AR antagonistic effect); format: cell-based; settings: HEK293 cells overexpressing human 5-HT2AR; serotonin at EC80
T1 construct: expressed in transfected cells; host or cells: HEK293
Method in brief: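 HEK293 cells stably overexpressing human 5-HT2AR were pre-incubated with compound (top 10 μM, serial dilutions, LiCl buffer) 10 min at room temperature, then stimulated with EC80 serotonin 30 min at 37 °C. IP1 accumulation was read by HTRF; IC50s came from activity normalized to serotonin and IP1 controls.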

[1] = test system: physical (tactile) allodynia in spinal nerve ligation model; assay: Analgesic efficacy experiment using animal model (Chung model, spinal nerve ligation); format: in vivo, Sprague-Dawley rats; settings: for inhibition in vivo at 25 mg/kg: 25 mpk
Method: The Chung model (spinal nerve ligation model) is a representative animal model to study neuropathic pain and is widely accepted as a gold standard for an animal pain model by global pharmaceutical companies around the world.
In this experiment, male Sprague-Dawley rats (100-120 g) purchased from Koatech (Pyeongtaek-si, Gyeonggi-do) were used. Rats were kept in a room maintained at constant temperature and humidity with a 12 hour light-dark cycle. Rats were allowed to eat and drink freely during the experiment.
For the Chung surgery, rats were anesthetized by isoflurane inhalation and the left lumbar nerves L5 and L6 were tightly tied with a suture thread (6-0 silk thread) at the end of the dorsal ganglion and at a front of an entrance to the sciatic nerve according to the article (Kim and Chung (1992), Pain 50(3):355-63). After suturing the incision, the rats were recovered for 2 weeks in the controlled maintenance room to induce physical allodynia in the left hind paw of the rat. To measure physical (tactile) allodynia, the rats were placed in a cage with a wire mesh on the bottom. Stimuli of increasing intensity (using the von Frey filaments in a range of 0.41 to 15.8 g) were placed on the plantar surface on the side of the nerve injury. The stimulus intensity at which the pain response (abrupt lifting, licking or sucking of the foot) was induced was recorded while applying gradual increment of stimuli. As described in the study of Chaplan et al. (1994) (Chaplan et al. (1994) J. Neurosci. Methods 53(1):55-63), the paw withdrawal threshold (PWT) was determined by increasing or decreasing continuous stimulus intensity, and the result was analyzed by applying Dixon's up-down method. Only rats showing no behavior dysfunction (e.g., feet dragging or dropping) were selected and included in the study, and the PWT of the rats used was 3.16 g or less.
After measuring the degree of basic reaction before drug injection, each compound and solvent were injected by oral administration (12.5-100 mg/kg), and the measurement was repeated at regular time intervals (60 and 120 minutes) after the drug was injected.
The experimenter conducted the PWT measurement in a blind condition not knowing which rat was administered with which drug. The control group was administered with gabapentin (65 mg/kg, intraperitoneal administration), and was randomly mixed during the measurement. Statistical analysis was performed on the measured pain response threshold by calculating the reversal rate (% reversal) from pain in Equation 1 below. […] Pain reversal rate (% reversal)=[(PWT after drug administration)−(PWT before drug administration)]*100/[(15 g, Estimated PWT in normal animals)−(PWT before drug administration)] [Equation 1]
The PWT used in this time is a value obtained by multiplying the gram, the unit of “force” measure, by 10,000, and taking the logarithm, which is a method generally used in academia.
Each experiment consisted of the compound group, the solvent group of the compound and the gabapentin (GBP) group as positive control group. As solvent of the compound, 0.5% HPMC (hydroxypropylmethyl cellulose) was used.

mGluR5 = target: T2, mGluR5 (Homo sapiens, UniProt P41594); assay: Fluorescence-based Ca2+ mobilization assay; format: cell-based; settings: HEK293 cells overexpressing mGluR5; L-glutamate at EC80
T2 construct: expressed in transfected cells; host or cells: HEK293
T2 sequence (P41594 21-1212): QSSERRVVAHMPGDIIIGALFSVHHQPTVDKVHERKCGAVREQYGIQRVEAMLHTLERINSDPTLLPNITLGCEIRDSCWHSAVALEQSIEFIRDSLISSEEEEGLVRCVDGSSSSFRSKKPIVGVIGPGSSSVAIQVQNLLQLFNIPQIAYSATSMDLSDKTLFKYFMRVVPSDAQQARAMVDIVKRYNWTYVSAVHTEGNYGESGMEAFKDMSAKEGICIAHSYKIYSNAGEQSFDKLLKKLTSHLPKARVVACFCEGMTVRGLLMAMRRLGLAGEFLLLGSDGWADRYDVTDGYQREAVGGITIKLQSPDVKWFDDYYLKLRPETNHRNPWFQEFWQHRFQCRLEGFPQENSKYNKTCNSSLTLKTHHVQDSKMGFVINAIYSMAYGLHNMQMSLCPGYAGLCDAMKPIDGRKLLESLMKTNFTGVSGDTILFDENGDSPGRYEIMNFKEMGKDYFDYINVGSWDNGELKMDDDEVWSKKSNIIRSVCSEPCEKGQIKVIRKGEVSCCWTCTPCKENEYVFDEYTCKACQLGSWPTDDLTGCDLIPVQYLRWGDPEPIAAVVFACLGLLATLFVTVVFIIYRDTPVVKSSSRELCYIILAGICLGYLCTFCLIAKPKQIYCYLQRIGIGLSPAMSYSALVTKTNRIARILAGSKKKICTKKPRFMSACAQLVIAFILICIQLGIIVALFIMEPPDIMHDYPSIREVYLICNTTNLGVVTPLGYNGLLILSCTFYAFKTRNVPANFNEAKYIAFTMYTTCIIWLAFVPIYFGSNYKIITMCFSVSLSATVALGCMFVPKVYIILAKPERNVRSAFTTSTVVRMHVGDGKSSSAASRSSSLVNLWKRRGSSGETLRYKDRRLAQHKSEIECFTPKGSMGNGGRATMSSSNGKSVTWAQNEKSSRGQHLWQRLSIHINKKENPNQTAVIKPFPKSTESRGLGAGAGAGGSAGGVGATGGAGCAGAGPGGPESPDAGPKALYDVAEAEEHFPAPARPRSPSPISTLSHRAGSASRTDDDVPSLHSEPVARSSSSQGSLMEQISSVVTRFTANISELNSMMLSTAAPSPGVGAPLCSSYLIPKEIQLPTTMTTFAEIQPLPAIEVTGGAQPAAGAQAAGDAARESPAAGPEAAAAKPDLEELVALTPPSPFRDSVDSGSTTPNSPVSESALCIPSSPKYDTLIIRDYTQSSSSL
Method in brief: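 HEK293 cells stably overexpressing mGluR5, dye-loaded 60 min at 37 °C, then preincubated with compound 30 min at room temperature in the dark. Ca2+ response to L-glutamate at EC80 read on FLIPR for 2 min. Signal normalised to glutamate (100%) and vehicle (0%); IC50 from % inhibition.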

[2] = rat, oral, 50 mpk, 1 h, read-out: % reversal (1 h)
[3] = rat, oral, 50 mpk, 2 h, read-out: % reversal (2 h)
[4] = rat, oral, 100 mpk, 1 h, read-out: % reversal (1 h)
[5] = rat, oral, 100 mpk, 2 h, read-out: % reversal (2 h)
[6] = rat, oral, 1 h, read-out: % reversal (1 h)
[7] = rat, oral, 2 h, read-out: % reversal (2 h)
[8] = Rattus norvegicus, po, 1 h, read-out: % reversal (1 h)
[9] = Rattus norvegicus, po, 2 h, read-out: % reversal (2 h)

T1 sequence (P28223 whole entry): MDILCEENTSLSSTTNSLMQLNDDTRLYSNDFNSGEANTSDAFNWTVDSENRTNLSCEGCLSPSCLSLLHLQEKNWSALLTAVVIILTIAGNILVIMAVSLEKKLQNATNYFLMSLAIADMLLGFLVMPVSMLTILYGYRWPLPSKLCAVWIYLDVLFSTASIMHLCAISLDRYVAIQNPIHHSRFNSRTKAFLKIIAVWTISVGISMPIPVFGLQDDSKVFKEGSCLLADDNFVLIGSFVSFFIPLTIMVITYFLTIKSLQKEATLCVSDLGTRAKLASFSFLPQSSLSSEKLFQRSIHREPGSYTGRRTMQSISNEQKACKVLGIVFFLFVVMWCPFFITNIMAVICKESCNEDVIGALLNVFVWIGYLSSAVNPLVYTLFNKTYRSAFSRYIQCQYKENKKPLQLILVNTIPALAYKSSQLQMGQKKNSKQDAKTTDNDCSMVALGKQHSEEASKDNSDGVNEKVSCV

SMILES | IC50 (human 5-HT2AR) | IC50 (mGluR5) | inhibition in vivo at 50 mg/kg [1, 2] | inhibition in vivo at 50 mg/kg [1, 3] | inhibition in vivo at 100 mg/kg [1, 4] | inhibition in vivo at 100 mg/kg [1, 5] | also measured
O=C(NCC1CCC(F)(F)CC1)c1ccc(C#Cc2ccccc2F)cc1 [Example 39, N-((4,4-difluorocyclohexyl)methyl)-4-((2-fluorophenyl)ethynyl)benzamide] | < 100 nM | < 100 nM |  |  |  |  | inhibition in vivo at 100 mg/kg [1, 8]: 25.4%; inhibition in vivo at 100 mg/kg [1, 9]: 33.5%
O=C(NCC1CCCOC1)c1ccc(C#Cc2ccccc2F)cc1 (centres unmarked) [Example 40, 4-((2-fluorophenyl)ethynyl)-N-((tetrahydro-2H-pyran-3-yl)methyl)benzamide] | 100 to 500 nM | < 100 nM | 103% | 111% |  |  | 
CC(NC(=O)c1ccc(C#Cc2ccccc2F)cc1)C1CCOCC1 (centres unmarked) [Example 42, 4-((2-fluorophenyl)ethynyl)-N-(1-(tetrahydro-2H-pyran-4-yl)ethyl)benzamide] | 100 to 500 nM | < 100 nM |  |  | 82.9% | 88.1% | 
O=C(NCC1CCOC1)c1ccc(C#Cc2ccccc2F)cc1 (centres unmarked) [Example 43, 4-((2-fluorophenyl)ethynyl)-N-((tetrahydrofuran-3-yl)methyl)benzamide] | 100 to 500 nM | < 100 nM | 72.9% | 90.8% |  |  | 
O=C(NC[C@H]1CCCO1)c1ccc(C#Cc2ccccc2F)cc1 [Example 45, (R)-4-((2-fluorophenyl)ethynyl)-N-((tetrahydrofuran-2-yl)methyl)benzamide] | 100 to 500 nM | < 100 nM | 77.7% | 50.6% |  |  | 
O=C(NC[C@@H]1CCCO1)c1ccc(C#Cc2ccccc2F)cc1 [Example 46, (S)-4-((2-fluorophenyl)ethynyl)-N-((tetrahydrofuran-2-yl)methyl)benzamide] | 100 to 500 nM | 100 to 500 nM |  |  | 73% | 99.8% | 
O=C(NCC1CCOCC1)c1ccc(C#Cc2ccccc2)cc1 [Example 49, 4-(phenylethynyl)-N-((tetrahydro-2H-pyran-4-yl)methyl)benzamide] | 100 to 500 nM | < 100 nM |  |  |  |  | inhibition in vivo at 25 mg/kg [1, 6]: 28.5%; inhibition in vivo at 25 mg/kg [1, 7]: 22%
O=C(NCC1COCCO1)c1ccc(C#Cc2ccccc2F)cc1 (centres unmarked) [Example 51, N-((1,4-dioxan-2-yl)methyl)-4-((2-fluorophenyl)ethynyl)benzamide] | 100 to 500 nM | < 100 nM | 5.97% | 14.5% |  |  | 
CC1(CNC(=O)c2ccc(C#Cc3ccccc3F)cc2)COC1 [Example 52, 4-((2-fluorophenyl)ethynyl)-N-((3-methyloxetan-3-yl)methyl)benzamide] | 100 to 500 nM | < 100 nM |  |  | 90.8% | 101% | 
O=C(NCC1CC(F)(F)C1)c1ccc(C#Cc2ccccc2F)cc1 [Example 56, N-((3,3-difluorocyclobutyl)methyl)-4-((2-fluorophenyl)ethynyl)benzamide] | 100 to 500 nM | < 100 nM |  |  |  |  | inhibition in vivo at 50 mg/kg [1, 8]: 47.4%; inhibition in vivo at 50 mg/kg [1, 9]: 43.6%

More lines, main results first:

IC50 (human 5-HT2AR) | IC50 (mGluR5) | SMILES | inhibition in vivo at 50 mg/kg [1, 2] | inhibition in vivo at 50 mg/kg [1, 3] | inhibition in vivo at 100 mg/kg [1, 4] | inhibition in vivo at 100 mg/kg [1, 5] | also measured
100 to 500 nM | 100 to 500 nM | O=C(NCC1(NC2CC2)CCC1)c1ccc(C#Cc2ccncc2)cc1 [Example 5, N-((1-(cyclopropylamino)cyclobutyl)methyl)-4-(pyridin-4-ylethynyl)benzamide] | 43.1% | 34.4% |  |  | 
< 100 nM | 100 to 500 nM | O=C(NCC1(NC2CC2)CCC1)c1ccc(C#Cc2ccccc2F)cc1 [Example 9, N-((1-(cyclopropylamino)cyclobutyl)methyl)-4-((2-fluorophenyl)ethynyl)benzamide] |  |  | 64% | 59.6% | 
100 to 500 nM | 100 to 500 nM | O=C(NCC1(NC2CC2)CCC1)c1ccc(C#Cc2ccncc2)cc1F [Example 10, N-((1-(cyclopropylamino)cyclobutyl)methyl)-2-fluoro-4-(pyridin-4-ylethynyl)benzamide] | 44.9% | 36.1% |  |  | 
< 100 nM | 100 to 500 nM | O=C(NCC1(NC2CC2)CCCC1)c1ccc(C#Cc2ccccc2F)cc1 [Example 11, N-((1-(cyclopropylamino)cyclopentyl)methyl)-4-((2-fluorophenyl)ethynyl)benzamide] |  |  | 58.7% | 57.4% | 
100 to 500 nM | 100 to 500 nM | O=C(NCC1(NC2CC2)CCCCCC1)c1ccc(C#Cc2ccccc2F)cc1 [Example 12, N-((1-(cyclopropylamino)cycloheptyl)methyl)-4-((2-fluorophenyl)ethynyl)benzamide] |  |  | 53.8% | 74.8% | 
100 to 500 nM | 500 to 1000 nM | O=C(NCC1(NC2CC2)CCCCCC1)c1ccc(C#Cc2ccncc2F)cc1 [Example 16, N-((1-(cyclopropylamino)cycloheptyl)methyl)-4-((3-fluoropyridin-4-yl)ethynyl)benzamide] | 61% | 95.8% |  |  | 
< 100 nM | 500 to 1000 nM | O=C(NCC1(NC2CC2)CCCCC1)c1ccc(C#Cc2ccccc2F)cc1 [Example 20, N-((1-(cyclopropylamino)cyclohexyl)methyl)-4-((2-fluorophenyl)ethynyl)benzamide] |  |  | 35% | 67% | 
< 100 nM | 100 to 500 nM | O=C(NCC1(NC2CC2)CCOCC1)c1ccc(C#Cc2ccccc2F)cc1 [Example 22, N-((4-(cyclopropylamino)tetrahydro-2H-pyran-4-yl)methyl)-4-((2-fluorophenyl)ethynyl)benzamide] | 19.3% | 77.5% |  |  | 
< 100 nM | 100 to 500 nM | CC(C)NC1(CNC(=O)c2ccc(C#Cc3ccccc3F)cc2)CCCCC1 [Example 25, 4-((2-fluorophenyl)ethynyl)-N-((1-(isopropylamino)cyclohexyl)methyl)benzamide] |  |  |  |  | inhibition in vivo at 25 mg/kg [1, 6]: 36.5%; inhibition in vivo at 25 mg/kg [1, 7]: 36.6%
100 to 500 nM | < 100 nM | O=C(NCC1CCOCC1)c1ccc(C#Cc2ccccc2F)cc1 [Example 27, 4-((2-fluorophenyl)ethynyl)-N-((tetrahydro-2H-pyran-4-yl)methyl)benzamide] | 70.3% | 66.3% |  |  | 
100 to 500 nM | < 100 nM | O=C(NCC1(CO)CCCCC1)c1ccc(C#Cc2ccccc2F)cc1 [Example 37, 4-((2-fluorophenyl)ethynyl)-N-((1-(hydroxymethyl)cyclohexyl)methyl)benzamide] |  |  | 37.1% | 18.8% | 
< 100 nM | 500 to 1000 nM | O=C(NCC1CCOCC1)c1ccc(C#Cc2ccc(F)cc2F)cc1 [Example 44, 4-((2,4-difluorophenyl)ethynyl)-N-((tetrahydro-2H-pyran-4-yl)methyl)benzamide] | 3.45% | 9.13% |  |  | 
< 100 nM | 1000 to 2000 nM | CC(C)NC1(CNC(=O)c2ccc(C#Cc3ccccc3)cc2)CCCCC1 [Example 55, N-((1-(isopropylamino)cyclohexyl)methyl)-4-(phenylethynyl)benzamide] |  |  | 68.9% | 80.2% | 
